Source: patent US20100150999A1, “THERAPY OF CANCER BASED ON TARGETING ADAPTIVE, INNATE AND/OR […] OF THE IMMUNE RESPONSE” (priority 2006, published 2010)

How the values were obtained:
[1] = tested on: TC-1 cells expressing HPV16-E6 and HPV16-E7; assay: TC-1 tumor model in C57BL/6 mice (tumor growth, eradication, survival); type: in vivo; conditions: for Effect on tumor growth: large TC-1 tumors, treated day 24/25
Protocol: TC-1 cells expressing HPV16-E6 and HPV16-E7 proteins derived from primary mouse lung epithelial cells were obtained from the American Type Culture Collection (LGC Promochem, Molsheim, France) (14). EL4-E7 cells, a mouse lymphoma expressing HPV16-E7 (15). Cells were maintained in RPMI 1640 with GlutaMAX supplemented with 10% heat-inactivated fetal calf serum, 100 units/ml penicillin, 100 μg/ml streptomycin, 0.4 mg/ml geneticin and 5×10^−5 mol/l 2-mercaptoethanol (Life Technologies, Cergy-Pontoise, France).
Thirty μg of CpG ODNs or pU were diluted in 50 μl of Optimen medium (Gibco, Grand Island, N.Y., USA) and mixed with 60 μg of DOTAP (Roche, Mannheim, Germany) diluted in 100 μl of Optimen. The rest of the reagents were diluted in PBS before injection. Cyclophosphamide (CTX) (Sigma, Steinheim, Germany) and doxorubicin (DOX) (Calbiochem, La Jolla, Calif., USA) were diluted respectively in PBS and in sterile water before injection. The different antigenic formulations and adjuvants were injected simultaneously except chemotherapeutic agents that were given 24 h before vaccine. Intravenous administrations were performed by retroorbital injection in a volume of 200 μl, intratumoral administrations were done by injection in a volume of 50 μl and subcutaneous administration were performed in 200 μl.
Tumor growth data were analyzed by non-linear mixed effect models using Monolix software (http://www.math.u-psud.fr/˜lavielle/monolix/). Mean diameters of tumors over time were fitted using the model described in (17) and treatments were compared using the Likelihood Ratio test. Kaplan-Meier plots were used to analyzed survival, and a log rank test was used to examine statistical significance of differences in the survival curves using Prism software (GraphPad Software, Inc. San Diego, USA). Data from in vivo CTL and tetramer staining were compared by ANOVA followed by Dunnett posttest. p values less than 0.05 were considered to be statistically significant.

TC-1 cells = conditions: RAG1-/- mice, 2.5 mg CTX i.p. day 24
Protocol: Specific pathogen-free 5-week-old female C57BL/6 mice were purchased from Charles River (L'Arbresle, France) and were kept in the Pasteur Institute animal facilities under pathogen-free conditions with water and food ad libitum. C57BL/6-RAG1^−/− mice were obtained from the Jackson Laboratory, USA. Experiments involving animals were conducted according to the institutional guidelines for animal care.
Tumor cells lines (5×10^5 TC-1 cells or 4×10^6 EL4-E7 cells) were inoculated into the shaved left back of C57BL/6 mice in 200 μl volume of PBS.

[2] = tested on: regulatory T cells, myeloid cells, NK cells, tumor-specific CD8+ T cells; assay: Flow cytometric analysis of immune cells in spleen, draining lymph nodes and tumor after treatment; type: in vivo, mice
Protocol: FIG. 9. Changes in immune cells after tritherapy on day 25. […] Groups of mice were sacrificed before treatment (day 0), 24 hour after CTX alone (day 1) or on days 4, 7 or 11 after tritherapy administration. Spleen, tumor draining lymph nodes and tumor were excised, ground to prepare the cell suspensions, stained and analyzed by flow cytometry. Pooled data of two experiments are shown (n=4-6 mice). Bars represent mean values and the error bars correspond to standard error of the mean. *<0.05 **<0.01. A) Percentage of CD4^+ cells that express CD25 and FoxP3. B) Percentage of CD4^+ cells that are CD25^− and FoxP3^+. C) Percentage of CD4^+ cells that express FoxP3. D) Percentage of CD8^+ cells that are tetramer^+ and CD44^+. E) Percentage of CD11c+ cells. F) Percentage of CD11 b^+ cells. G) Percentage of GR1+ cells. H) Percentage of CD11 b^+ GR1+ positive cells.
FIG. 11. Phenotype of myeloid cells induced by tritherapy and by tumor growth. […] Tritherapy treated mice received on day 24, 2.5 mg CTX i.p and 24 h later, 50 μg CyaA-E7 and 30 μg CpG-B/DOTAP. PBS treated mice received 200 μl of PBS on day 25. […] Spleens were excised, ground to prepare the cell suspensions, stained and analyzed by flow cytometry. […]
FACScalibur (Becton Dickinson, Franklin Lakes, N.J., USA) was used for flow cytometry and events were analyzed with CELLQuest software (Becton Dickinson, Franklin Lakes, N.J., USA).

Compound	Effect on tumor growth [1]	Effect on tumor growth ([1]; listed as cyclophosphamide)	Induction of tumor regression / complete eradication ([1]; without CyaA-E7, treated day 24/25)	Tumor growth delay (TC-1 cells)	Percentage of CD25+FoxP3+/CD4+ in tumor-infiltrated lymphocytes ([2]; four days after administration, from around 50%)	Lymphodepletion ([2]; spleen and lymph node, TC-1 tumor-bearing mice)
O=P1(N(CCCl)CCCl)NCCCO1 (stereo not shown) [CTX, Cyclophosphamide]	significantly delayed tumor growth	transiently control tumor growth	not able to induce the complete eradication	not observed	below 30%	transient lymphodepletion in spleen and lymph node that reverted by day 7
polyinosinic-polycytidylic acid [PIC]	none of these TLR ligands administered alone had any effect on the tumor growth					
